Assay results as given in US7482459B2, “[4-(5-aminomethyl-2-fluoro-phenyl)-piperidin-1-yl]-(4-bromo-3-methyl-5-propoxy-thiophen-2-yl)-methanone hydrochloride as an inhibitor of mast cell tryptase” (Aventis Pharmaceuticals Inc., priority 2004, dated 2009).
pIC50, pKi: −log10 of the molar value. Structures can show the parent of a compound that is named as a salt.

How the values were obtained:
[1] = tested on: Airway Hyperresponsiveness (AHR) to histamine in sensitized guinea pigs; assay: Guinea pig model of airway hyperreactivity (AHR to histamine after ovalbumin sensitization and challenge); format: in vivo
Experimental: Sensitization and drug treatment: Male Hartley guinea pigs (225-250 g) are sensitized with ovalbumin (0.5 mL of 1% solution, i.p. and s.c.). On day 4, animals received a booster injection (i.p.) of 0.5 mL of 1% ovalbumin. On day 21, animals are orally dosed (2mL/kg) with either vehicle (0.5% methylcellulose/0.2% Tween 80) or test compound 2 hours prior to antigen challenge. Thirty minutes before antigen challenge the animals are also injected with mepyramine (30 mg/kg, i.p.) to prevent anaphylactic collapse. Animals are then exposed for 5 minutes to an aerosol of either saline (control animals) or 1% ovalbumin using a deVilbiss Ultraneb nebulizer.
AHR measurement: Eighteen to twenty four hours after challenge, animals are anesthetized with a combination of ketamine (133 mg/kg) and xylazine (24 mg/kg) given intramuscularly, surgically prepared and then mounted in a whole body plethysmograph for lung function measurement. Animals are connected to Ugo-Basile ventilators delivering a tidal volume of 1 mL/100 g at a rate of 50 breaths/minute via a tracheal cannula. The jugular vein is also cannulated for histamine challenge. A water filled esophageal cannula is placed such that transpulmonary pressure is recordable. Transpulmonary pressure is measured as the difference between the tracheal and esophageal cannulas using a differential pressure transducer. The volume, airflow, and transpulmonary pressure signals are monitored using a pulmonary analysis system (Buxco XA software) and used to calculate pulmonary resistance (cm H2O/mL/s) and dynamic compliance (mL/cm H2O). Airway resistance and dynamic compliance are computed on a breath by breath basis. Histamine is administered intravenously and reactivity to increasing concentrations (0.3-20 μg/kg) assessed. ED50's are estimated from the area under the curve (AUC) values derived from the individual histamine dose-response curves.

[2] = Plasma, lung and BAL drug levels in guinea pigs; format: in vivo, guinea pig
Experimental: Plasma and Lung Drug Levels Plasma and lung compound levels are determined in satellite groups. Three to four guinea pigs from each of the experimental-drug treatment groups are used for the determination of drug levels. At the indicated time point, (either 2- or 24 hours after dosing), animals are euthanized, and 1 mL blood samples are obtained by cardiac puncture and collected into heparin-coated syringes containing 20 μL (per 1 mL of blood) of a 5 mM hydralazine solution. Plasma is separated from the cellular component of the blood by centrifugation, and stored at −20° C. until assayed. Lung samples are dissected free of connective tissues, blotted dry, weighed and stored in 20 mL vials containing 5 mL of a 5 mM hydralazine solution in saline. The frozen plasma samples are then transferred on dry ice to the Pilot PK group for compound levels determination.

[3] = target: T1, recombinant human β tryptase (Homo sapiens, UniProt Q15661); assay: β-Tryptase inhibitory potency, chromogenic enzyme assay (S2366 substrate); format: biochemical
T1 construct: host or cells: yeast cells
Experimental: Tryptase inhibition activity is confirmed using either isolated human lung tryptase or recombinant human β tryptase expressed in yeast cells. Essentially equivalent results are obtained using isolated native enzyme or the expressed enzyme. The assay procedure employs a 96 well microplate (Costar 3590) using L-pyroglutamyl-L-prolyl-L-arginine-para-nitroanilide (S2366: Quadratech) as substrate (essentially as described by McEuen et. al. Biochem Pharm, 1996, 52, pages 331-340). Assays are performed at room temperature using 0.5mM substrate (2×Km) and the microplate is read on a microplate reader (Beckman Biomek Plate reader) at 405 nm wavelength.
Materials and Methods for Tryptase Primary Screen (Chromogenic assay)
• S2366 (Stock solutions of 2.5 mM).
• Purified recombinant beta Tryptase Stocks of 310 μg/mL. Protocol (Single Point Determination) • Add 60 μL of diluted substrate (final concentration of 500 μM in assay buffer) to each well • Add compound in duplicates, final concentration of 20 μM, volume 20 μL • Add enzyme at a final concentration of 50 ng/mL in a volume of 20 μL • Total volume for each well is 100 μL • Agitate briefly to mix and incubate at room temp in the dark for 30 minutes • Read absorbencies at […]

[4] = oral route, sensitized guinea pigs
[5] = 2 hours after dosing, 1 mg/kg, p.o.

T1 sequence (Q15661 31-275): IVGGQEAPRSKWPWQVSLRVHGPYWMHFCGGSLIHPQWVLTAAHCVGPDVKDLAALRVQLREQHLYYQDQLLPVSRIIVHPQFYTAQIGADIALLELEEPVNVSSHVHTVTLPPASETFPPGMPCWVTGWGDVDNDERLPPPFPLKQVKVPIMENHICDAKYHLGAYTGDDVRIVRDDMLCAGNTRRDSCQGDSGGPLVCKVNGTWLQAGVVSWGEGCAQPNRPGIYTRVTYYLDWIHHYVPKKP

compound level in lung [2, 5]: appreciable amount
compound level in plasma [2, 5]: detected at a much lower level
compound level in bronchoalveolar lavage fluid (BAL) ([2]; 2 hours after dosing, 1 mg/kg, p.o., not taking into account dilution factor for BAL): appreciable amount
compound level in lung ([2]; 24 hours after dosing): dose-dependent appreciable amount
compound level in plasma ([2]; 24 hours after dosing): no plasma could be detected
pIC50 ([3]; 0.5 mM substrate S2366 (2×Km), room temperature): 7.12
pKi ([3]; calculated from IC50: Ki=IC50/(1+[Substrate]/Km)): 7.82
SMILES: CCCOc1sc(C(=O)N2CCC(c3cc(CN)ccc3F)CC2)c(C)c1Br [Compound I, [4-(5-aminomethyl-2-fluoro-phenyl)-piperidin-1-yl]-(4-bromo-3-methyl-5-propoxy-thiophen-2-yl)-methanone hydrochloride]
ED50 ([1]; Cavia porcellus, dosed 24 hours prior to antigen challenge, read-out: average ED50, duration of action): 0.4 mg/kg
ED50, protection against antigen-stimulated AHR to histamine, as measured by airway resistance and dynamic lung compliance ([1]; oral dosing 2 hours prior to ovalbumin challenge): 0.1 mg/kg
effect on basal airway resistance [1, 4]: no effect
effect on basal dynamic lung compliance [1, 4]: no effect
